Experiment [1] relates to synaptosomes from the striatal area of rat brain (dopamine release). Kind of experiment: Dopamine release from striatal synaptosomes. In kind it is cell-based, rat (Sprague-Dawley). As to the method:
Dopamine release was measured by preparing synaptosomes from the striatal area of rat brain obtained from Sprague-Dawley rats generally according to the procedures set forth by Nagy et al., J. Neurochem., Vol. 43, pp. 1114-1123 (1984). Striata from 4 rats were homogenized in 2 ml of 0.32M sucrose buffered with 5 mM HEPES (pH 7.5), using a glass-Teflon tissue grinder. The homogenate was diluted to 5 ml with additional homogenization solution and centrifuged at 1,000×g for 10 min. This procedure was repeated on the new pellet and the resulting supernatant was centrifuged at 12,000×g for 20 min. A 3 layer discontinuous Percoll gradient consisting of 16 percent, 10 percent and 7.5 percent Percoll in HEPES-buffered sucrose was made with the final pellet dispersed in the top layer. […] Using this method, 30 to 90 percent of the dopamine was taken up into the synaptosomes, as determined by scintillation counting following filtration through glass fiber filters soaked with 0.5 percent polyethyleneimine. […] After the addition of 0.2 ml of a solution containing various concentrations of ligand, the perfusate was collected into scintillation vials at 1 min. intervals and the dopamine released was quantified by scintillation counting. Peaks of radioactivity released above background were summed and the average basal release during that time was subtracted from the total.

For experiment [2] the following is noted: literature report; cited from earlier work.
The conditions of experiment [3]: literature report; cited from earlier work. This is another data set of the same source.

This is an account of results in patent US5885998A (priority 1998, dated 1999).

For `CNCC/C=C\c1cccnc1` [Sample No. 5, (Z)-metanicotine], the “Dopamine Release Emax” value in experiment [1] (release as percentage of release obtained with an equal concentration of (S)-(-)-nicotine) is 88 % nicotine.
`CN1CCCC1c1cccnc1` (stereo not shown) [nicotine]: in experiment [2], the “potentiation of certain pharmaceutical compositions used for treatment of certain CNS disorders” value is given as “potentiates the pharmacological behavior of certain pharmaceutical compositions”.
Regarding `CN1CCC[C@H]1c1cccnc1` [Sample No. C-1, (S)-(-)-nicotine], the “effect towards the treatment of various CNS disorders” value in experiment [3] was “positive effect towards the treatment of various CNS disorders”.
As for `CNCC/C=C/c1cccnc1` [Sample No. 8, (E)-metanicotine], the Emax in experiment [1] (Rattus norvegicus) worked out at 80%.
